Measured values reported in US9670204B2, “Compounds and pharmaceutical compositions thereof for the treatment of inflammatory disorders” (Galapagos NV, priority 2013, dated 2017).

Biological target: hENPP2 (UniProtKB/SwissProt Q13822) (Homo sapiens (Human), UniProt Q13822)
Assay: hENPP2 biochemical assay, LPC as substrate
Settings: LPC (palmitoyl 16:0) as substrate
Method: The principle of the assay consists in quantifying the released choline with an enzymatic method using choline oxidase and peroxidase. Choline oxydation by choline oxydase releases betaine and peroxide. The latter is quantified in presence of HRP that converts the peroxide detection agent TOOS and 4-aminoantipyrine into quinoneimine dye. The appearance of quinoneimine dye is measured spectrophotometrically at 555 nm and is proportional to the amount of choline released by ENPP2. Inhibition of ENPP2 will result in a decrease of the signal.
Compound IC50 values are determined in a hENPP2 (UniProtKB/SwissProt Sequence ref Q13822) biochemical assay using LPC as substrate.
The enzyme is diluted in 50 mM Tris-HCl pH 8.5, 500 mM NaCl, 5 mM KCl, 10 mM CaCl2, 0.1% fatty acid free BSA in a total volume of 10 μL. the reaction is started by the addition of 10 μL of 150 μM LPC (palmitoyl 16:0) diluted in the same buffer as described above and the mixture is incubated at 37° C. for 30 min. The reaction is terminated and choline quantified by the addition of a 25 μL of a mixture containing 0.6 U/mL of choline oxidase, 0.6 U/mL of peroxydase, 1.8 mM TOOS, 1.2 mM amino-antipyrine, 20 mM EGTA (stop-developer solution) diluted in the buffer described above. […] is read on the Envision after an incubation of 30 min at room temperature (Excitation 555 nm, excitation light=70%).

IC50 [nM]	Compound
500 to 1000	CCc1nc2ccc(C3CCN(CC(=O)N(C)CCO)CC3)cn2c1N(C)c1nc(-c2ccc(F)cc2)cs1 [Compound 119, 2-(4-(2-ethyl-3-((4-(4-fluorophenyl)thiazol-2-yl)(methyl)amino)imidazo[1,2-a]pyridin-6-yl)piperidin-1-yl)-N-(2-hydroxyethyl)-N-methylacetamide]
> 1000	CCc1nc2ccc(C3CCN(CC(=O)NCCCO)CC3)cn2c1N(C)c1nc(-c2ccc(F)cc2)cs1 [Compound 123, 2-(4-(2-ethyl-3-((4-(4-fluorophenyl)thiazol-2-yl)(methyl)amino)imidazo[1,2-a]pyridin-6-yl)piperidin-1-yl)-N-(3-hydroxypropyl)acetamide]
500 to 1000	CCc1nc2ccc(C3CCN(S(C)(=O)=O)CC3)cn2c1N(C)c1nc(-c2ccc(F)cc2CO)cs1 [Compound 107, (2-(2-((2-ethyl-6-(1-(methylsulfonyl)piperidin-4-yl)imidazo[1,2-a]pyridin-3-yl)(methyl)amino)thiazol-4-yl)-5-fluorophenyl)methanol]
> 1000	CCc1nc2ccc(C3=CCN(S(C)(=O)=O)CC3)cn2c1N(C)c1nc(-c2ccc(F)c(F)c2)cs1 [Compound 73, 4-(3,4-difluorophenyl)-N-(2-ethyl-6-(1-(methylsulfonyl)-1,2,3,6-tetrahydropyridin-4-yl)imidazo[1,2-a]pyridin-3-yl)-N-methylthiazol-2-amine]
> 1000	CCc1nc2ccc(C3CCN(CC4COC(=O)N4)CC3)cn2c1N(C)c1nc(-c2ccc(F)cc2)cs1 (centres unmarked) [Compound 198, 4-((4-(2-ethyl-3-((4-(4-fluorophenyl)thiazol-2-yl)(methyl)amino)imidazo[1,2-a]pyridin-6-yl)piperidin-1-yl)methyl)oxazolidin-2-one]
100 to 500	CCc1nc2ccc(N3CCN(CC(=O)N4CC(F)C4)CC3)cn2c1N(C)c1nc(-c2ccc(F)cc2)cs1 [Compound 28, 2-(4-(2-ethyl-3-((4-(4-fluorophenyl)thiazol-2-yl)(methyl)amino)imidazo[1,2-a]pyridin-6-yl)piperazin-1-yl)-1-(3-fluoroazetidin-1-yl)ethanone]
> 1000	CN(C)C(=O)CN1CCC(c2ccc3nc(CCC(N)=O)c(N(C)c4nc(-c5ccc(F)cc5)cs4)n3c2)CC1 [Compound 176, 3-(6-(1-(2-(dimethylamino)-2-oxoethyl)piperidin-4-yl)-3-((4-(4-fluorophenyl)thiazol-2-yl)(methyl)amino)imidazo[1,2-a]pyridin-2-yl)propanamide]
> 1000	CCc1nc2ccc(C3=CCN(S(C)(=O)=O)CC3)cn2c1N(C)c1nc(-c2ccc(OC)cc2)cs1 [Compound 71, N-(2-ethyl-6-(1-(methylsulfonyl)-1,2,3,6-tetrahydropyridin-4-yl)imidazo[1,2-a]pyridin-3-yl)-4-(4-methoxyphenyl)-N-methylthiazol-2-amine]
100 to 500	CCc1nc2ccc(C3CCN(CC(=O)N4CCC(O)C4)CC3)cn2c1N(C)c1nc(-c2ccc(F)cc2)cs1 (centres unmarked) [Compound 223, 2-(4-(2-ethyl-3-((4-(4-fluorophenyl)thiazol-2-yl)(methyl)amino)imidazo[1,2-a]pyridin-6-yl)piperidin-1-yl)-1-(3-hydroxypyrrolidin-1-yl)ethanone]
> 1000	CCc1nc2ccc(C3=CCN(S(C)(=O)=O)CC3)cn2c1N(C)c1nc(-c2ccc(C(C)(C)C)cc2)cs1 [Compound 70, 4-(4-tert-butylphenyl)-N-(2-ethyl-6-(1-(methylsulfonyl)-1,2,3,6-tetrahydropyridin-4-yl)imidazo[1,2-a]pyridin-3-yl)-N-methylthiazol-2-amine]
> 1000	CCc1nc2ccc(C3=CCN(S(C)(=O)=O)CC3)cn2c1N(C)c1nc(-c2ccc(C(F)(F)F)cc2)cs1 [Compound 193, N-(2-ethyl-6-(1-(methylsulfonyl)-1,2,3,6-tetrahydropyridin-4-yl)imidazo[1,2-a]pyridin-3-yl)-N-methyl-4-(4-(trifluoromethyl)phenyl) thiazol-2-amine]
500 to 1000	CCc1nc2ccc(C3CCN(S(C)(=O)=O)CC3)cn2c1N(C)c1nc(-c2ccc(C(F)(F)F)cc2)c(CO)s1 [Compound 150, (2-((2-ethyl-6-(1-(methylsulfonyl)piperidin-4-yl)imidazo [1,2-a]pyridin-3-yl)(methyl)amino)-4-(4-(trifluoromethyl)phenyl)thiazol-5-yl) methanol]
100 to 500	CCc1nc2ccc(N3CC(NCC(=O)N4CC(O)C4)C3)cn2c1N(C)c1nc(-c2ccc(F)cc2)cs1 [Compound 178, 2-(1-(2-ethyl-3-((4-(4-fluorophenyl)thiazol-2-yl)(methyl)amino)imidazo[1,2-a]pyridin-6-yl)azetidin-3-ylamino)-1-(3-hydroxyazetidin-1-yl)ethanone]
500 to 1000	CCc1nc2ccc(N3CCN(CC(=O)N4CC(CO)C4)CC3)cn2c1N(C)c1nc(-c2ccc(F)cc2)c(CO)s1 [Compound 146, 2-(4-(2-ethyl-3-((4-(4-fluorophenyl)-5-(hydroxymethyl)thiazol-2-yl)(methyl)amino)imidazo[1,2-a]pyridin-6-yl)piperazin-1-yl)-1-(3-(hydroxymethyl)azetidin-1-yl)ethanone]
> 1000	CCc1nc2ccc(C3CCN(C[C@@H]4CNC(=O)O4)CC3)cn2c1N(C)c1nc(-c2ccc(F)cc2)cs1 [Compound 197, (S)-5-((4-(2-ethyl-3-((4-(4-fluorophenyl)thiazol-2-yl)(methyl)amino)imidazo[1,2-a]pyridin-6-yl)piperidin-1-yl)methyl)oxazolidin-2-one]
500 to 1000	CCc1nc2ccc(N3CCN(CC(=O)NC)CC3)cn2c1N(C)c1nc(-c2ccc(F)cc2C#N)c(C)s1 [Compound 163, 2-(4-(3-((4-(2-cyano-4-fluorophenyl)-5-methylthiazol-2-yl)(methyl)amino)-2-ethylimidazo[1,2-a]pyridin-6-yl)piperazin-1-yl)-N-methylacetamide]
> 1000	CCc1nc2ccc(N3CCN(C(=O)C4(N)CC4)CC3)cn2c1N(C)c1nc(-c2ccc(F)cc2)cs1 [Compound 202, (1-aminocyclopropyl)(4-(2-ethyl-3-((4-(4-fluorophenyl)thiazol-2-yl)(methyl)amino)imidazo[1,2-a]pyridin-6-yl)piperazin-1-yl)methanone]
> 1000	CCc1nc2ccc(C3CCN(S(C)(=O)=O)CC3)cn2c1N(C)c1nc(-c2ccc(F)c(F)c2)cs1 [Compound 83, 4-(3,4-difluorophenyl)-N-(2-ethyl-6-(1-(methylsulfonyl)piperidin-4-yl)imidazo [1,2-a]pyridin-3-yl)-N-methylthiazol-2-amine]
> 1000	CCc1nc2ccc(C3CCN(S(C)(=O)=O)CC3)cn2c1N(C)c1nc(-c2ccc(OC(F)(F)F)cc2)cs1 [Compound 85, N-(2-ethyl-6-(1-(methylsulfonyl)piperidin-4-yl)imidazo [1,2-a]pyridin-3-yl)-N-methyl-4-(4-(trifluoromethoxy)phenyl)thiazol-2-amine]
> 1000	CCc1nc2ccc(C3CCN(S(C)(=O)=O)CC3)cn2c1N(C)c1nc(-c2ccc(C(F)(F)F)cc2)cs1 [Compound 84, N-(2-ethyl-6-(1-(methylsulfonyl)piperidin-4-yl)imidazo [1,2-a]pyridin-3-yl)-N-methyl-4-(4-(trifluoromethyl)phenyl) thiazol-2-amine]
